Among the data in patent US20250346571A1, “BICYCLIC DERIVATIVE PARP INHIBITOR AND USE THEREOF” (XIZANG HAISCO PHARMACEUTICAL CO., LTD., priority 2022, published 2025) are IC50 values, retold here.

The target of the assay is PARP-1 enzyme (Homo sapiens (Human), UniProt P09874). The assay can be described thus: PARP-1 enzyme activity test (chemical fluorescence detection kit, BPS Bioscience). The following applies: grades; read-out: PARP-1 enzyme activity IC50. The class given is biochemical. The method, then:
PARP-1 chemical fluorescence detection kit was purchased from BPS Bioscience. The histone solution in the kit was diluted 5× with 1×PBS, and 25 μL of the diluted histone solution was added to a microwell plate and incubated overnight at 4° C. After the incubation, the plate was washed three times with PBST (0.05% Tween-20). 100 μL of the blocking solution was added to the microwell plate and incubated at 25° C. for 90 minutes. After the incubation was completed, the plate was washed three times with PBST. 2.5 μL of compounds at different concentrations diluted in test buffer and 12.5 μL of substrate mixed solution (1.25 μL 10×PARP test buffer; 1.25 μL 10×PARP test mixed solution; 2.5 μL Activated DNA, 7.5 μL double-distilled water) were added to the microwell plate. The PARP-1 enzyme was diluted to 2 ng/μL, […] was added to the microwell plate, and the reaction system was incubated at 25° C. for 60 minutes.
After the incubation was completed, the plate was washed three times with PBST. Streptavidin-HRP was diluted 50× with a blocking solution, and 25 μL of the diluent was added to the microwell plate and incubated at 25° C. for 30 minutes. After the incubation, the plate was washed three times with PBST. ELISA ECL substrate A and substrate B were uniformly mixed at a ratio of 1:1 (v/v), 50 μL of the mixture was added to the microwell plate, and the chemiluminescence value was read.
The inhibition rate was calculated according to formula 1, where RLUsample was the readout of the compound well, RLUmax was the readout of the solvent control well, and RLUmin was the readout of the control well without the PARP-1 enzyme. Curve fitting was performed by four parameters (log(inhibitor) vs. response—Variable slope) using GraphPad Prism software, and the ICso value was calculated.
Inhibition %=(1−(RLUsample−RLUmin)/(RLUmax−RLUmin))×100% (formula 1)

SMILES strings stand for the structures.

Sequence of PARP-1 enzyme (P09874 whole entry): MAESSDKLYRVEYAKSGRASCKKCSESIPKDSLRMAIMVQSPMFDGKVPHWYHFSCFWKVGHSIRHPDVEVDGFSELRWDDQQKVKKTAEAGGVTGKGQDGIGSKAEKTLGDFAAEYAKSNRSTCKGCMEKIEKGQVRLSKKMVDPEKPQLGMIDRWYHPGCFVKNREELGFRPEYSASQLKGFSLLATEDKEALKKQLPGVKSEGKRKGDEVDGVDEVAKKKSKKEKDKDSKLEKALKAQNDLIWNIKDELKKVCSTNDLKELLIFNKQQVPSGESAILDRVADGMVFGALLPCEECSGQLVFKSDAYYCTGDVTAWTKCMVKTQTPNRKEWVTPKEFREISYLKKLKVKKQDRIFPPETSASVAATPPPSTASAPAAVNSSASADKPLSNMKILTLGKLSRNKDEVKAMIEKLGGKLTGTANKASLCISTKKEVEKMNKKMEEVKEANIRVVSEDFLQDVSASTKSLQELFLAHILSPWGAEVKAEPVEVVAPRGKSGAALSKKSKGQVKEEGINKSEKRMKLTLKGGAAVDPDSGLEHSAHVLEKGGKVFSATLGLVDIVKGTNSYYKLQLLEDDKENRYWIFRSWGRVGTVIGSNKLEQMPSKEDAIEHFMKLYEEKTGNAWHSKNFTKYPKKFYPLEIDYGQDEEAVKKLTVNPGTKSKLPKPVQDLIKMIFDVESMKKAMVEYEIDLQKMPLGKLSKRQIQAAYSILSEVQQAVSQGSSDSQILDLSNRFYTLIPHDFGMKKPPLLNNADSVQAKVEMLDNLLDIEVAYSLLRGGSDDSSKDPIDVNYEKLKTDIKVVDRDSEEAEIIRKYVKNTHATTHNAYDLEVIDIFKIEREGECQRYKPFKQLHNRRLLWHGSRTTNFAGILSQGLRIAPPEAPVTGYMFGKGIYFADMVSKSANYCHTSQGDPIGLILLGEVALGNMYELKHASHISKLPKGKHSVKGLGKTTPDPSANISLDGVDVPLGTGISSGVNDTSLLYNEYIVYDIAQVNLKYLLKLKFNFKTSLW

In general, IC50 refers to the point on the concentration scale where inhibition reaches its midpoint. `O=C(NC1CC1)c1ccc(N2CCN(Cc3ccc4nc(C(F)F)c(=O)[nH]c4c3F)CC2)c(F)n1` [Compound 12, N-cyclopropyl-5-(4-((2-(difluoromethyl)-5-fluoro-3-oxo-3,4-dihydroquinoxalin-6-yl)methyl)piperazin-1-yl)-6-fluoropicolinamide]: the IC50 is below 5 nM.
